# Values joined by “and” are separate entries in the source; they are usually repeats but may differ in a detail not shown here. Equal values may be shown once.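 Where inhibition never reached the appropriate level, the endpoint shown equals the highest concentration tested. Otherwise, values were interpolated linearly from a five-concentration, 48-hour dose response in 96-well plates. Here, GI50 denotes the concentration required for 50% inhibition of growth. At the TGI there is no net growth.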
# Test system: NCI-H23 lung
# Assay: growth of human tumour cells (NCI), 48 h
Compound,TGI,GI50
CC(C)(CC(=O)Nc1ccccc1)C(=O)O,> 100 µM,–
COc1ccc(/C(COc2c(-c3ccccc3)oc3ccccc3c2=O)=N\O)cc1,> 50 µM,24.2 µM
Cn1c(=O)c2[nH]c(SCc3ccccn3)nc2n(C)c1=S,> 100 µM,–
COc1cc2c(c(O)c1Br)C(=O)c1c(O)cc(C[C@H](C)O)cc1[C@H]2[C@H]1c2cc(C[C@H](C)O)cc(O)c2C(=O)c2c1cc(OC)c(Br)c2O,42.1 µM and 39.3 µM,5.85 µM and 4.83 µM
COc1ccc(-c2cc(=O)c3ccc(O)cc3o2)cc1OC,> 100 µM,–
CC[C@]1(O)C[C@@H]2CN(CCc3c([nH]c4ccccc34)[C@@](C(=O)OC)(c3cc4c(cc3OC)N(C)[C@H]3[C@@](O)(C(=O)OC)[C@H](OC(C)=O)[C@]5(CC)C=CCN6CC[C@]43[C@@H]65)C2)C1,> 100 µM,< 0.01 µM
N#CSc1c[nH]c2cccc(/C=C/C(=O)/C=C(/C=C/c3cccc4[nH]cc(SC#N)c34)OB(F)F)c12,3.29 µM,0.755 µM
COc1cc([N+](=O)[O-])cc2c3c(n(C)c12)[C@@]1(C)CCC2c4ccc(OCc5ccccc5)cc4CCC2C1C3 (some centres undefined),> 100 µM,68.8 µM
C=CC(=O)N1CC2(CCN(c3nc(OC4CCN(CCCOC)CC4)nc4c(OCC(F)(F)F)c(-c5c(C)ccc6[nH]ncc56)c(C5CC5)cc34)CC2)C1,1.95 µM,–
FC(F)(F)c1cccc(Nc2nccc(-c3cnn4nc(-c5ccccc5)ccc34)n2)c1,> 25 µM,9.13 µM
CC[C@@H]1C(=O)N(C)c2cnc(Nc3ccc(C(=O)NC4CCN(C)CC4)cc3OC)nc2N1C1CCCC1,> 5.03 µM and 6.4 µM,0.00443 µM and < 0.01 µM
C=C1C(=O)O[C@H]2[C@H]1CC/C(COC(=O)c1ccc3ccccc3c1)=C\CC[C@@]1(C)O[C@@H]21,3.36 µM,1.6 µM
CC[CH2][Sn]([CH2]CC)([O]C(=O)c1cccnc1SC)[O][Sn]([CH2]CC)([CH2]CC)[O]C(=O)c1cccnc1SC,0.801 µM,0.218 µM
COC1/C=C\C=C(/C)C(=O)NC2=CC(=O)C(=O)C(=C2O)CC(C)CC(OC)C(O)C(C)/C=C(\C)C1OC(N)=O (centres undefined),> 100 µM,–

# Test system: NCI-H522 lung
# Assay: growth of human tumour cells (NCI), 48 h
Compound,GI50,TGI
CN1CCN(C(=O)OCc2nc3c(N4CCOCC4)nc(Cl)nc3n2C)CC1,1.1 µM,2.74 µM
COC(=O)[C@]12CC[C@@H](C)[C@H](C)[C@@H]1C1=CC[C@@H]3[C@@]4(C)C/C(=N\O)[C@H](O)[C@@]5(C)COC(=C45)C[C@@]3(C)[C@]1(C)CC2,14.1 µM,30.1 µM
Oc1c(CN2CCC(N3CCCCC3)CC2)cc(Cc2cc(CN3CCC(N4CCCCC4)CC3)c(O)c3ncccc23)c2cccnc12,1.39 µM,3.63 µM
Cn1c2ccccc2c2c(-c3ccccc3)[n+]3ccncc3nc21,48 µM,> 100 µM
COc1ccc(-c2cnnc3c(-c4cccc(C(F)(F)F)c4)cnn23)cc1,3.66 µM,> 100 µM
C=CCCCCCCCCC(=O)[O][Sn]([CH2]CCC)([CH2]CCC)[CH2]CCC,0.141 µM,0.296 µM
CC/C(=C(/c1ccc(O)cc1)c1ccc(OCCNC)cc1)c1ccccc1,1.87 µM,3.68 µM
O=C(/C(Br)=C/c1ccccc1)c1ccccc1,0.396 µM,2.23 µM
C=C1C(=O)O[C@H]2[C@H]1CC/C(Cn1cc(-c3ccc(OC)cc3)nn1)=C\CC[C@@]1(C)O[C@@H]21,0.387 µM,1.73 µM
CCOc1cc2c(Cl)ncnc2c(OCC)c1OCC,9.67 µM,23.5 µM
Oc1ccc2ccccc2c1N=Nc1nccs1,2.22 µM,12.4 µM
CC(=O)OCCN1c2ccccc2Sc2cnccc21,–,> 10 µM
COc1ccc(/C(COc2c(-c3ccccc3)oc3ccccc3c2=O)=N\O)cc1,11.1 µM,28.5 µM
Cn1c(=O)c2[nH]c(SCc3ccccn3)nc2n(C)c1=S,–,> 100 µM
COc1cc2c(c(O)c1Br)C(=O)c1c(O)cc(C[C@H](C)O)cc1[C@H]2[C@H]1c2cc(C[C@H](C)O)cc(O)c2C(=O)c2c1cc(OC)c(Br)c2O,8.02 µM and 25.7 µM,18.9 µM and 78.7 µM
COc1ccc(-c2cc(=O)c3ccc(O)cc3o2)cc1OC,–,> 100 µM
CC[C@]1(O)C[C@@H]2CN(CCc3c([nH]c4ccccc34)[C@@](C(=O)OC)(c3cc4c(cc3OC)N(C)[C@H]3[C@@](O)(C(=O)OC)[C@H](OC(C)=O)[C@]5(CC)C=CCN6CC[C@]43[C@@H]65)C2)C1,< 0.01 µM,–
N#CSc1c[nH]c2cccc(/C=C/C(=O)/C=C(/C=C/c3cccc4[nH]cc(SC#N)c34)OB(F)F)c12,0.207 µM,0.501 µM
COc1cc([N+](=O)[O-])cc2c3c(n(C)c12)[C@@]1(C)CCC2c4ccc(OCc5ccccc5)cc4CCC2C1C3 (some centres undefined),53.6 µM,> 100 µM
C=CC(=O)N1CC2(CCN(c3nc(OC4CCN(CCCOC)CC4)nc4c(OCC(F)(F)F)c(-c5c(C)ccc6[nH]ncc56)c(C5CC5)cc34)CC2)C1,1.78 µM,3.57 µM
FC(F)(F)c1cccc(Nc2nccc(-c3cnn4nc(-c5ccccc5)ccc34)n2)c1,6.88 µM,> 18.5 µM
CC[C@@H]1C(=O)N(C)c2cnc(Nc3ccc(C(=O)NC4CCN(C)CC4)cc3OC)nc2N1C1CCCC1,0.00294 µM and < 0.01 µM,< 0.0561 µM
C=C1C(=O)O[C@H]2[C@H]1CC/C(COC(=O)c1ccc3ccccc3c1)=C\CC[C@@]1(C)O[C@@H]21,0.739 µM,2.2 µM
CC[CH2][Sn]([CH2]CC)([O]C(=O)c1cccnc1SC)[O][Sn]([CH2]CC)([CH2]CC)[O]C(=O)c1cccnc1SC,< 0.0196 µM,0.0784 µM
COC1/C=C\C=C(/C)C(=O)NC2=CC(=O)C(=O)C(=C2O)CC(C)CC(OC)C(O)C(C)/C=C(\C)C1OC(N)=O (centres undefined),–,18.3 µM

# Test system: OVCAR-3 ovarian
# Assay: growth of human tumour cells (NCI), 48 h
Compound,GI50,TGI
CN1CCN(C(=O)OCc2nc3c(N4CCOCC4)nc(Cl)nc3n2C)CC1,0.547 µM,2.15 µM
COC(=O)[C@]12CC[C@@H](C)[C@H](C)[C@@H]1C1=CC[C@@H]3[C@@]4(C)C/C(=N\O)[C@H](O)[C@@]5(C)COC(=C45)C[C@@]3(C)[C@]1(C)CC2,5.47 µM,18.2 µM
Oc1c(CN2CCC(N3CCCCC3)CC2)cc(Cc2cc(CN3CCC(N4CCCCC4)CC3)c(O)c3ncccc23)c2cccnc12,0.517 µM,10.1 µM
Cn1c2ccccc2c2c(-c3ccccc3)[n+]3ccncc3nc21,> 100 µM,> 100 µM
COc1ccc(-c2cnnc3c(-c4cccc(C(F)(F)F)c4)cnn23)cc1,2.55 µM,6.45 µM
C=CCCCCCCCCC(=O)[O][Sn]([CH2]CCC)([CH2]CCC)[CH2]CCC,0.147 µM,0.285 µM
CC/C(=C(/c1ccc(O)cc1)c1ccc(OCCNC)cc1)c1ccccc1,2.1 µM,4.52 µM
O=C(/C(Br)=C/c1ccccc1)c1ccccc1,2.2 µM,5.59 µM
C=C1C(=O)O[C@H]2[C@H]1CC/C(Cn1cc(-c3ccc(OC)cc3)nn1)=C\CC[C@@]1(C)O[C@@H]21,0.569 µM,1.8 µM
CCOc1cc2c(Cl)ncnc2c(OCC)c1OCC,4 µM,10.8 µM
Oc1ccc2ccccc2c1N=Nc1nccs1,0.417 µM,8.99 µM
CC(=O)OCCN1c2ccccc2Sc2cnccc21,–,> 10 µM
CC(C)(CC(=O)Nc1ccccc1)C(=O)O,–,> 100 µM
Cn1c(=O)c2[nH]c(SCc3ccccn3)nc2n(C)c1=S,–,> 100 µM
COc1cc2c(c(O)c1Br)C(=O)c1c(O)cc(C[C@H](C)O)cc1[C@H]2[C@H]1c2cc(C[C@H](C)O)cc(O)c2C(=O)c2c1cc(OC)c(Br)c2O,15.3 µM and 31.1 µM,67.5 µM and > 100 µM
COc1ccc(-c2cc(=O)c3ccc(O)cc3o2)cc1OC,–,> 100 µM
CC[C@]1(O)C[C@@H]2CN(CCc3c([nH]c4ccccc34)[C@@](C(=O)OC)(c3cc4c(cc3OC)N(C)[C@H]3[C@@](O)(C(=O)OC)[C@H](OC(C)=O)[C@]5(CC)C=CCN6CC[C@]43[C@@H]65)C2)C1,< 0.01 µM,< 0.01 µM
N#CSc1c[nH]c2cccc(/C=C/C(=O)/C=C(/C=C/c3cccc4[nH]cc(SC#N)c34)OB(F)F)c12,0.243 µM,0.586 µM
COc1cc([N+](=O)[O-])cc2c3c(n(C)c12)[C@@]1(C)CCC2c4ccc(OCc5ccccc5)cc4CCC2C1C3 (some centres undefined),> 100 µM,> 100 µM
C=CC(=O)N1CC2(CCN(c3nc(OC4CCN(CCCOC)CC4)nc4c(OCC(F)(F)F)c(-c5c(C)ccc6[nH]ncc56)c(C5CC5)cc34)CC2)C1,2.37 µM,5.28 µM
FC(F)(F)c1cccc(Nc2nccc(-c3cnn4nc(-c5ccccc5)ccc34)n2)c1,5.24 µM,11 µM
CC[C@@H]1C(=O)N(C)c2cnc(Nc3ccc(C(=O)NC4CCN(C)CC4)cc3OC)nc2N1C1CCCC1,0.00353 µM and < 0.01 µM,–
C=C1C(=O)O[C@H]2[C@H]1CC/C(COC(=O)c1ccc3ccccc3c1)=C\CC[C@@]1(C)O[C@@H]21,0.538 µM,1.77 µM
CC[CH2][Sn]([CH2]CC)([O]C(=O)c1cccnc1SC)[O][Sn]([CH2]CC)([CH2]CC)[O]C(=O)c1cccnc1SC,0.583 µM,1.85 µM
COC1/C=C\C=C(/C)C(=O)NC2=CC(=O)C(=O)C(=C2O)CC(C)CC(OC)C(O)C(C)/C=C(\C)C1OC(N)=O (centres undefined),–,19.7 µM

# Test system: PC-3 prostate
# Assay: growth of human tumour cells (NCI), 48 h
Compound,GI50 [µM],TGI [µM]
CN1CCN(C(=O)OCc2nc3c(N4CCOCC4)nc(Cl)nc3n2C)CC1,1.33,2.92

# — PubChem BioAssay (NCI)
